Columns and labels:
[1] = test system: thoracic aorta of rabbits fed 1% cholesterol diet; test: Analysis for fatty streak deposition in thoracic aorta; type: in vivo, rabbit; details: microscopic pictures, 1% cholesterol plus 0.15% bioflavonoid or 1.5 mg/kg simvastatin, control: thick layer
Procedure: The chest wall of each rabbit (sacrificed in Step B) was incised, a portion of thoracic aorta from 1 cm site above aortic valve downward for 5 cm was cut out. The surrounding fatty tissues were removed, the aorta was incised longitudinally and pinned to a dish. The moist aorta was then photographed, and staining of fatty streak was carried out with the method described by Esper, E. et al. (Journal of Lab. Clinical Medicine; 121, pp 103-110(1993)) as follows.
The opened portion of aortas were pinned to a wooden tongue depressor, washed three times for 2 minutes with anhydrous propylene glycol and stained for 30 minutes with saturated solution of Oil Red O dissolved in propylene glycol. Then the aortas were washed twice for 3 minutes with 85% propylene glycol, to remove remaining staining solution by washing with normal saline solution. The aortas were photographed, and the photographs were traced with an image analyzer (LEICA, Q-600, Germany), and the area of stained portion were fatty streak region, its proportion in percentile (%) to the total aorta area were calculated.

ICR female mice = details: single oral dose (rutin 1500, quercetin 125, kaempherol 1000, vitexin 500 mg/kg), observed 30 days
[2] = test system: liver of rabbits fed 1% cholesterol diet; test: Fatty degeneration in the liver of the rabbits; type: in vivo, rabbit; details: 1% cholesterol plus 0.15% bioflavonoid or 1.5 mg/kg Simvastatin
Source text: According to the report of Fogt F. and Nanji A., (Toxicology and Applied Pharmacology; 136, pp 87-93, 1996) and Keegan A. et al., (Journal of Hepatology; 23, pp 591-600, 1995). […]

3-HMG-CoA reductase = biological target: T1, 3-HMG-CoA reductase (Oryctolagus cuniculus, UniProt Q29512); test: Activity of 3-HMG-CoA reductase in liver microsomes (modified Hulcher's method); type: biochemical, rabbit; details: liver microsomes of rabbits fed 8 weeks 1% cholesterol plus 0.15% bioflavonoid; control group 0%
T1 construct: ultracentrifuged at 100,000 times gram for 60 minutes and again for another 60 minutes to obtain microsomal precipitates; from tissue; host or cells: rabbit liver microsomes
T1 sequence (Q29512 1-888): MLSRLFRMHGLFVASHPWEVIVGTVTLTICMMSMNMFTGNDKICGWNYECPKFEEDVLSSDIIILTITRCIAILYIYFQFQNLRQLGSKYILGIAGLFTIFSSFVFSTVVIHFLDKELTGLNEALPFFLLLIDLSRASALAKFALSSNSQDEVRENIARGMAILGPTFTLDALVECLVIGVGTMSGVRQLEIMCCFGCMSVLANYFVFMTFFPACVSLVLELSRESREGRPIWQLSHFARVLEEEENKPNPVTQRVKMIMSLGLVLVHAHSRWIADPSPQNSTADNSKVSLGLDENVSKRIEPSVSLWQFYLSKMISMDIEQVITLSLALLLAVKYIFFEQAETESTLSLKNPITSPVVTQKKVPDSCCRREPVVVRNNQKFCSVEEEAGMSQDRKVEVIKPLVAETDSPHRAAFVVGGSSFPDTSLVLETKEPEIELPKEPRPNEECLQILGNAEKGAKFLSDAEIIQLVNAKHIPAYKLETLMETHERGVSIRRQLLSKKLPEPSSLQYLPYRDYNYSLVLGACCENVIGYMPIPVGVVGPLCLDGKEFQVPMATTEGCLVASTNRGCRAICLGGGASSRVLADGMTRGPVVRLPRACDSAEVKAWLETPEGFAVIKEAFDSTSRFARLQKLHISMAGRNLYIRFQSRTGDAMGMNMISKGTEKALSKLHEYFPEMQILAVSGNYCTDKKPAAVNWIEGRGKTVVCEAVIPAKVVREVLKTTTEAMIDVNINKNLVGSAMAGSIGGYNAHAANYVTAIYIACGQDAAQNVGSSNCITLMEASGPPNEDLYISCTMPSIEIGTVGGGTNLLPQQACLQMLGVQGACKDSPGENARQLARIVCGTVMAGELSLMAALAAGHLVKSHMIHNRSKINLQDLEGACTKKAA
Procedure: The activity of 3-HMG-CoA reductase was determined by modified Hulcher's method (Journal of lipid research; 14, 625-641, 1973), in which the concentration of Co-A will be produced when 3-HMG-CoA is reduced to mevalonate salt by the action of the 3-HMG-CoA reductase; then the reductase was determined by spectroscopy and the activity of the 3-HMG-CoA reductase was calculated.
Liver tissues from each group of rabbits from Example 4 Step B were obtained, 3 gram of tissue was washed with 100 ml of cold normal saline (1 N NaCl) and 100 ml of cold buffer solution-A (0.1M triethanolamine HCl/10 mM EDTA/10 mM dithiothreitol (DTT)). A cold buffered solution-A and liver tissue ratio was 2 ml per each gram. Then the mixture was minced and homogenized with a homogenizer, the homogenate was centrifuged at 20,000 times gram for 15 minutes, the supernatant was ultracentrifuged at 100,000 times gram for 60 minutes and again for another 60 minutes to obtain microsomal precipitates. The precipitates were washed with cold buffer solution-A and kept at minus 70 degree C. till ready for analysis.
There were 3 reactive substrates used in this assay (a) buffer solution B; 0.1 M triethanolamine HCl/10 mM EDTA with ph 7.4 (b) 3-HMG-CoA solution; 150 mu.moles/culture medium, (c) NADPH solution; 2 mu.moles/culture medium.
The microsomal suspension was then mixed with reaction substrates in a centrifuge tube and allowed to react at 37 degree C. for 30 minutes, then added with 20 mu 1 of 10 mM sodium arsenous solution and allowed to react for 1 minute, and then added with 100 µl of citrate buffer solution (2M sodium citrate/3 M sodium tungstate, with Ph of 3.5) at 37 degree C. for 10 minutes, then centrifuged at 30,000 times gram for 15 minutes to remove protein. […]
The mixture was then added with 20 µl of DTNB buffer solution (3 mM DTNB/0.1M triethanolamine/10 mM EDTA with PH of 7.4). The absorbance of this mixture was determined at wave length of 412 nm to calculate the amount of CoA that is the activity of 3-HMG-CoA reductase.

Row | SMILES | macrophage lipid cell complex in the aorta walls (FIGS. IB-IF) [1] | survival (ICR female mice) | microscopic features of the liver (FIGS. 2B-2F) [2] | body weight (ICR female mice) | Inhibition on the activity of 3-HMG-CoA reductase in percentage (%) (3-HMG-CoA reductase)
1 | O=c1c(O)c(-c2ccc(O)cc2)oc2cc(O)cc(O)c12 [Kaempherol, 3,5,7,4′ tetra-hydroxy-flavone] | no or a very thin layer of macrophage lipid cell complex | alive at day 31 | almost all of the liver cells are normal without containing fat particles | – | –
2 | O=c1cc(-c2ccc(O)cc2)oc2c(C3O[C@H](CO)[C@@H](O)[C@H](O)[C@H]3O)c(O)cc(O)c12 (stereo partly drawn) [Vitexin, 8-D-glucosyl-4′,5,7 trihydroxy-flavone] | no or a very thin layer of macrophage lipid cell complex | alive at day 31 | almost all of the liver cells are normal without containing fat particles | no body weight loss | 30
3 | C[C@@H]1O[C@@H](OC[C@H]2O[C@@H](Oc3c(-c4ccc(O)c(O)c4)oc4cc(O)cc(O)c4c3=O)[C@H](O)[C@@H](O)[C@@H]2O)[C@H](O)[C@H](O)[C@H]1O [Rutin, quercetin-3-rutinoside] | – | alive at day 31 | – | no body weight loss | 45
4 | O=c1c(O)c(-c2ccc(O)c(O)c2)oc2cc(O)cc(O)c12 [Quercetin, 3,5,7,3′,4′ penta-hydroxy flavone] | no or a very thin layer of macrophage lipid cell complex | alive at day 31 | almost all of the liver cells are normal without containing fat particles | – | 32

— patent US20060040911A1, “Method for preventing and/or treating the cardiovascular and hepatic diseases induced by hyperlipidemia which comprises administered an effective amount of bioflavonoids extract derived from fructus crataegus (lipid metabolism and fructus crataegus)” (priority 2003, published 2006)
